Measurements reported in patent publication US9512178B2, “Neurogenic brain-derived neurotrophic factor peptides” (Research Foundation for Mental Hygiene, Inc., priority 2012, dated 2016).

Legend:
[1] = tested on: E18 primary hippocampal neurons; assay: Western blots of neuronal markers, densitometry; assay type: cell-based, mouse; conditions: 5 days
Method: (§1) Following treatment in 6-well plates, cells were washed 2× in glucose buffered saline, GBS (5.4 mM KCl, 138 mM NaCl, 22 mM glucose, and 2 mM Na—KPO pH 7.2), and then lysed by 5 min incubation on ice in 100 or 150 μl of ice-cold RIPA buffer (PBS, 1% w/v NP-40 from Fisher Scientific, 0.1% w/v SDS, and 0.5% w/v sodium desoxycholate) containing 1 mM AEBSF (Gold Biotechnology, St. Louis, Mo., USA), 10 μg/ml aprotinin (Sigma-Aldrich, St. Louis, Mo., USA), and 20 μg/ml of leupeptin and pepstatin (US Biochemicals, Cleveland, Ohio, USA), and phosphatase inhibitors: NaF, Na orthovanadate, (3-glycerophosphate, and microcystein (Sigma-Aldrich, St. Louis, Mo., USA). Extracts were prepared by collecting and pooling a minimum of 2 wells by scraping, and lysates were centrifuged at 20,000×g for 10 min at 4° C. Protein concentration of each cell lysate was determined using the BCA kit (Thermo Scientific, Rockford, Ill., USA). The lysates (7.5-20 μg total protein) were separated on 10% SDS-PAGE gels (except for BDNF where 12% gels were employed) and transferred to 0.45 μm PVDF membrane (Pall, Pensacola, Fla., USA) for probing with antibodies as noted. Blots were blocked for 1 hr at 37° C. in 1×TBST (0.05% Tween 20 in TBS) containing 5% w/v blotting grade dry milk (Bio-rad, Hercules, Calif., USA), incubated in primary antibody overnight in blocking buffer at 4° C., washed 3×10 min in TBST at room temperature, followed by incubation with secondary antibody, i.e., peroxidase-conjugated anti-mouse or anti rabbit IgG (Jackson ImmunoResearch Laboratories, West Grove, Pa., USA) diluted in blocking buffer. Blots were washed 3×10 min in TBST and immunoreactive protein bands were visualized with enhanced chemiluminescence (ECL) reagents (Pierce, Rockford, Ill., USA). The ECL films of the blots were scanned and analyzed using Multi Gauge software version 3.0 (Fujifilm, Tokyo, Japan).
(§2) The following primary antibodies were used: rabbit polyclonal anti-NFM (1:1000; Chemicon/Millipore, Billerica, Mass., USA); mouse monoclonal anti-NeuN, clone A60 (1:500; Millipore, Billerica, Mass., USA); rabbit polyclonal anti-Tuj-1, (3—III-tubulin (Covance; 1:800, Emeryville, Calif., USA); mouse monoclonal SMI 52 to the adult isoforms of MAP-2, MAP2a,b (1:1000; Covance, Emeryvilly, Calif., USA); rabbit polyclonal anti-Synapsin I (1:2000; Stressgen, Farmingdale, N.Y., USA); rabbit monoclonal anti-PSD95 (1:1000; Cell signaling, Danvers, Mass., USA); anti tau 92e (1:10000); mouse monoclonal anti-BDNF (1:1000; Calbiochem, Gibbstown, N.J., USA); rabbit polyclonal anti-TrkB (total) (1:500; Santa Cruz Biotechnology, Santa Cruz, Calif., USA); rabbit polyclonal anti-pTrkB (Tyr706) (1:400; Santa Cruz Biotechnology, Santa Cruz, Calif., USA), TrkC (1:1000; Cruz Biotechnology, Santa Cruz, Calif., USA); and pTrkY490 (1:500; Upstate USA Inc., Charlottesville, Va., USA). For loading control, the blots were developed with rabbit polyclonal antibody to GAPDH (1:2000; Santa Cruz Biotechnology, Santa Cruz, Calif., USA).
To biochemically study the effect of BDNF peptides in inducing expression of neuronal markers, protein samples were recovered from cells treated with peptides B-5, B-4, B-3, or vehicle for five days. As a positive control, protein samples were collected from cells treated with BDNF at 20 ng/ml (0.79 nM) or 100 ng/ml (3.95 nM) (FIG. 3D, E). Western blots of the cell lysates were developed with antibodies to Synapsin I (presynaptic marker), PSD95 (postsynaptic marker), NeuN (late neuronal marker), NFM (early neuronal marker), MAP2 (dendritic marker), 0-IIItubulin (early neuronal marker), and tau 92e (axonal marker).

TrkB receptor = biological target: T1, TrkB receptor (Mus musculus, UniProt P15209); assay: TrkB phosphorylation (Tyr 706) and TrkB level in primary E18 hippocampal cells, with or without K252a; assay type: cell-based; conditions: 1 μM; for increase in the phosphorylation of the TrkB receptor: 5 min, without K252a; for TrkB levels / activation of TrkB (pTrkB Tyr 706 normalized to total TrkB): 1 h
T1 construct: endogenous in cells; host or cells: primary hippocampal neurons from embryonic day 18 C57BL/6 mice
T1 sequence (P15209 32-821): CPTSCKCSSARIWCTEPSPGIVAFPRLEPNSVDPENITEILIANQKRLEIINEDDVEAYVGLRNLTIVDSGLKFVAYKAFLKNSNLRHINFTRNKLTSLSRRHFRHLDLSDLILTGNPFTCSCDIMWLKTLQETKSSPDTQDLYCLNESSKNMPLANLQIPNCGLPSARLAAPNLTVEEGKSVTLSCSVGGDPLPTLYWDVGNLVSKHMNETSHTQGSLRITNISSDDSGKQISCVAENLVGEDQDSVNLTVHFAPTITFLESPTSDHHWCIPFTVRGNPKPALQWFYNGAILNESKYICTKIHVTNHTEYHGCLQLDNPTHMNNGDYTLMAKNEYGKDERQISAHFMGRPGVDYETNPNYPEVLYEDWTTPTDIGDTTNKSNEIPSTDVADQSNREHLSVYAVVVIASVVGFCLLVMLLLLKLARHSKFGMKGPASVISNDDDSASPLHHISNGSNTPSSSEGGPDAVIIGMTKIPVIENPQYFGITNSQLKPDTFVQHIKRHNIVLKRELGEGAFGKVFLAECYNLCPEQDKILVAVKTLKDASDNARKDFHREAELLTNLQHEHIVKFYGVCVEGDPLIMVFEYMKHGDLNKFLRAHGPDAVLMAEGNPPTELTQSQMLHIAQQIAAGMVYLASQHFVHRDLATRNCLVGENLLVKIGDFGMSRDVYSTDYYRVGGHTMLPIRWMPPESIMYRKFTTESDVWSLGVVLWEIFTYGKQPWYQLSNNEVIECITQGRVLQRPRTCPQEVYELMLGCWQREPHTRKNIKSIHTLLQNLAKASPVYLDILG
Method: Peptides were dissolved in water in serial dilutions of 10 mM, 1 mM, 100 μM and 10 μM from which the necessary amount was added directly to the culture medium to a final concentration of 0.05 μM, 1 μM, or 10 μM. The BDNF (Peprotech, NJ, USA) was used as a reference in concentrations of 20 ng/ml (0.79 nM) and 100 ng/ml (3.95 nM). Cycloheximide (CHX) (Sigma-Aldrich, St Louis, Mo., USA) was used for blocking protein synthesis. CHX original stock was 100 mg/ml (355.4 mM) in DMSO; from a second stock of 35.54 mM in DMSO, the dilutions were made to the final concentrations of 100 μM. The K252a (CALBIOCHEM/EMD) was used to inhibit the TrkB Receptor. From a stock of 100 μM in DMSO, K252a was diluted to a final working concentration of 200 nM. The E18 primary hippocampal cells were pre-treated with CHX or K252a 1 h prior to the addition of the peptides or BDNF and a time course of these treatments for 15 min, 60 min and 2 days was studied.
as §1
as §2, with “Calif., USA). […]” for “Calif., USA).”

Substance | MAP2 expression (Western blot) ([1]; 0.1 μM) | NFM expression (Western blot) ([1]; 0.1 μM) | expression of NeuN (Western blot) ([1]; 1 μM) | expression of PSD95 (Western blot) ([1]; 1 μM) | levels of 0-IIItubulin (Western blot) ([1]; 1 μM, vs vehicle) | level of tau (92e antibody, Western blot) [1] | increase in the phosphorylation of the TrkB receptor (TrkB receptor) | TrkB levels (TrkB receptor) | activation of TrkB (pTrkB Tyr 706 normalized to total TrkB) (TrkB receptor) | expression of NeuN (Western blot) ([1]; 0.1 μM)
Ac-I-K-R-G-CONH2 [Peptide B-5] | increased significantly | increased NFM expression | increased the expression of NeuN | significant increment | this increase was not significant | Neither BNDF nor peptides B-3, B-4 or B-5 had any significant effect | significant | increased | relatively weak activation | –
Ac-S-KKR-CONH2 [Peptide B-3] | – | – | increased the expression of NeuN | – | – | Neither BNDF nor peptides B-3, B-4 or B-5 had any significant effect | significant | increased | relatively weak activation | increased the expression of NeuN
